Test results: patent US8168659B2, “1, 5-diphenyl-3-benzylamino-1, 5-dihydropyrrolidin-2-one as CB1 receptor modulators” (Eli Lilly and Company, priority 2006, dated 2012)
Where a name gives a salt, the structure may show the parent alone. Read-outs that look alike come from different tables or passages of the source.

Tests used:
[1] = target: T1, Human CB2 (Homo sapiens, UniProt P34972); experiment: Antibody-capture SPA GTP-γ-35S binding, antagonist/inverse agonist, Sf9 cell membranes; assay type: biochemical
T1 construct: purchased Applied Cell Sciences, Gaithersburg, Md; PerkinElmer Life Sciences, Boston, Mass; host or cells: Sf9 insect cells (recombinant expression), membranes
Procedure: (§1) Antibody-Capture SPA GTP-γ-^35S Binding
(§2) Test exemplified compounds. Measure GTP-γ^35S binding in a 96 well format using a modified antibody capture technique previously described (DeLapp et al. 1999). Briefly incubate, CHO or Sf9 cell membranes expressing CB1 or CB2, respectively (Applied Cell Sciences, Gaithersburg, Md.; PerkinElmer Life Sciences, Boston, Mass.); prepare as previously described (DeLapp et al., 1999), exemplified compounds and 500 μM GTP-γ-^35S (PerkinElmer Life Sciences, Boston, Mass.) for 30 minutes (incubate all at room temperature) in GTP-binding assay buffer (20 mM Hepes, 100 mM NaCl, 5 mM MgCl2, pH 7.4). Perform antagonist dose responses in the presence of a saturating dose of full agonist (methanandamide). Add a mixture containing 0.27% Nonidet P40 detergent (Roche, Indianapolis, Ind.), anti-Gi antibody (final dilution of 1:300; Covance, Princeton, N.J.), and 1.25 mg anti-rabbit antibody scintillation proximity assay beads (GE Healthcare, Piscataway, N.J.) and seal the plates and incubate for an additional 3 hours. Centrifuge the plates at 700×g for 10 minutes using a Beckman GS-6R centrifuge and count for 1 minute per well using a Wallac MicroBeta TriLux scintillation counter (PerkinElmer, Boston, Mass.).
(§3) To analyze data, first subtract background from all wells. Determine percent agonist efficacy by normalizing agonist/inverse agonist dose response data to a full agonist (methanandamide) response. Calculating antagonist percent inhibition data by normalizing to results generated with a saturating concentration of methanandamide. Analyze the data using a 4-parameter logistic reduced fit with Activity Base and XLFit3 (IDBS, Emeryville, Calif.). Determine Kb values using a modification of the Cheng-Prusoff relationship: Kb=IC50/(1+[agonist]/EC50) where IC50 is determined from a four parameter fit of displacement curves, [agonist]=EC50 of full agonist, and EC50 is determined from a four parameter fit of a full agonist concentration response curve (Cheng and Prusoff 1973). Calculate mean Kb values as a mean of at least three independent determinations±standard error of the mean (SEM).

[2] = Bioavailability rat; assay type: in vivo
From the text: (§4) Methods for accessing bioavailabilty are well appreciated in the art. One such reference is Medicinal Research Reviews Vol 21 No. 5 382-396 (2001).

[3] = Bioavailability dog; assay type: in vivo
From the text: as §4

[4] = target: T2, hCB1 (Homo sapiens, UniProt P21554); experiment: hCB1 SPA GTPγ35S Sf9 membranes, antagonist; assay type: biochemical; set-up: purchased Applied Cell Sciences, Gaithersburg, Md; PerkinElmer Life Sciences, Boston, Mass; host or cells: Sf9 insect cells (recombinant expression), membranes; settings: hCB1 SPA GTPγ35S Sf9 Mem 22.7 ug protein/well Antagonist; read-out: Inverse Agonist Potency CB1 (Kb)
Procedure: as §1
as §2, with “Briefly incubate, CHO or Sf9 cell membranes expressing CB1 or CB2, respectively (Applied Cell Sciences, Gaithersburg, Md.; PerkinElmer Life Sciences, Boston, Mass.); prepare as previously described (DeLapp et al., 1999), exemplified compounds and 500 μM GTP-γ-^35S (PerkinElmer Life Sciences, Boston, Mass.) for 30 minutes (incubate all at room temperature) in GTP-binding assay buffer (20 mM Hepes, 100 mM NaCl, 5 mM MgCl2, pH 7.4).” left out
as §3

[5] = target: T3, Rat CB1 (Rattus norvegicus, UniProt P20272); experiment: Antibody-capture SPA GTP-γ-35S binding, antagonist/inverse agonist, CHO cell membranes; assay type: biochemical
T3 construct: purchased Applied Cell Sciences, Gaithersburg, Md; PerkinElmer Life Sciences, Boston, Mass; host or cells: CHO cells (recombinant expression), membranes
Procedure: as §1, §2, §3

[6] = target: T2, hCB1; experiment: as above; assay type: biochemical
Procedure: as §1, §2, §3

[7] = target: T1, Human CB2; experiment: Agonist GTP-binding, Sf9 membranes; assay type: biochemical
Procedure: as §1
Test exemplified compounds. Measure GTP-γ^35S binding in a 96 well format using a modified antibody capture technique previously described (DeLapp et al. 1999). Briefly incubate, CHO or Sf9 cell membranes expressing CB1 or CB2, respectively (Applied Cell Sciences, Gaithersburg, Md.; PerkinElmer Life Sciences, Boston, Mass.); prepare as previously described (DeLapp et al., 1999), exemplified compounds and […] GTP-γ-^35S (PerkinElmer Life Sciences, Boston, Mass.) for 30 minutes (incubate all at room temperature) in GTP-binding assay buffer (20 mM Hepes, 100 mM NaCl, 5 mM MgCl2, pH 7.4). Perform antagonist dose responses in the presence of a saturating dose of full agonist (methanandamide). […]
To analyze data, first subtract background from all wells. […] Determine Kb values using a modification of the Cheng-Prusoff relationship: Kb=IC50/(1+[agonist]/EC50) where IC50 is determined from a four parameter fit of displacement curves, [agonist]=EC50 of full agonist, and EC50 is determined from a four parameter fit of a full agonist concentration response curve (Cheng and Prusoff 1973). […]

[8] = system: NIH-Swiss mice; experiment: Forced swim test (FST); assay type: in vivo; settings: minimum effective dose, decrease in immobility time
Procedure: Receive NIH male Swiss mice (Harlan Sprague-Dawley, weigh 20-25 g) 7-10 days prior to testing. House 12 mice/cage. Test animals that weigh 25-30 g. On the day of test, bring animals to the testing room at least 1 hr prior to dosing, when doing starts, 6-8 min. intervals between each dosing with mouse receiving either vehicle or exemplified compounds by p.o., and then put it into a clean cage afterwards (4 mice/cage). Depending on pretreatment time, start the test accordingly.
Mice FST: Place NIH-Swiss mice in clear plastic cylinders (diameter: 10 cm; height: 25 cm) filled to 6 cm with 22-25° C. water for six min. Record the duration of immobility during the last 4 min. of the six-minute trial. A mouse is regarded as immobile when floating motionless or making only those movements necessary to keep its head above the water.
Copy the data-immobility (second) into JMP data sheet, and analyze by ANOVA-Dunnett's test. Record the minimum effective dose (MED) as the lowest dose of compound at which statistically significant decrease in immobility time is observed versus a vehicle control.

[9] = target: T2, hCB1; experiment: Agonist GTP-binding, Sf9 membranes; assay type: biochemical; set-up: purchased Applied Cell Sciences, Gaithersburg, Md; PerkinElmer Life Sciences, Boston, Mass; host or cells: Sf9 insect cells (recombinant expression), membranes
Procedure: as §1
as §2, with “Briefly incubate, CHO or Sf9 cell membranes expressing CB1 or CB2, respectively (Applied Cell Sciences, Gaithersburg, Md.; PerkinElmer Life Sciences, Boston, Mass.); prepare as previously described (DeLapp et al., 1999), exemplified compounds and 500 μM GTP-γ-^35S (PerkinElmer Life Sciences, Boston, Mass.) for 30 minutes (incubate all at room temperature) in GTP-binding assay buffer (20 mM Hepes, 100 mM NaCl, 5 mM MgCl2, pH 7.4).” left out
as §3

[10] = Antibody-capture SPA GTP-γ-35S binding, human CB2, read-out: Inverse Agonist Potency CB2 (Kb)

T2 sequence (P21554 whole entry): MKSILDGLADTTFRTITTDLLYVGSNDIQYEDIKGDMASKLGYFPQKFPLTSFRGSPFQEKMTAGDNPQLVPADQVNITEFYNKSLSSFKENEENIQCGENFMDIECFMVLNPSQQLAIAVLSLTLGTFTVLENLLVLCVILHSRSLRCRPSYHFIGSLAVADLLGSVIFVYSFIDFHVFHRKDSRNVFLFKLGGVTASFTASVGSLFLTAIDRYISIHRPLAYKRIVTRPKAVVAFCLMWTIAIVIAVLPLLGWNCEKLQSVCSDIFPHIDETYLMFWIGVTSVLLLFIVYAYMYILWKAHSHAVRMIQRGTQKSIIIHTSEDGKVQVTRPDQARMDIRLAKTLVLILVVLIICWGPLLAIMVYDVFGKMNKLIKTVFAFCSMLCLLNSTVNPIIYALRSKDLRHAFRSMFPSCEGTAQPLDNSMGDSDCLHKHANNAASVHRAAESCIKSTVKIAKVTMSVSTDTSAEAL
T1 sequence (P34972 whole entry): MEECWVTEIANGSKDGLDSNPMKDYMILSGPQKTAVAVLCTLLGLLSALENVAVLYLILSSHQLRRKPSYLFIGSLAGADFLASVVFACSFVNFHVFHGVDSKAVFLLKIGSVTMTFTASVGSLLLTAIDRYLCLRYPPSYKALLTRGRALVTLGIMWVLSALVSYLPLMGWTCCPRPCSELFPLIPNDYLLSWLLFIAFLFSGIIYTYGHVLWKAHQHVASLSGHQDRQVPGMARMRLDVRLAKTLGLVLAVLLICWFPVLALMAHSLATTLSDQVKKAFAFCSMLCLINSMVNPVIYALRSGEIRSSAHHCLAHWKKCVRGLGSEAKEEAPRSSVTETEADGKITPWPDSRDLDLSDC
T3 sequence (P20272 whole entry): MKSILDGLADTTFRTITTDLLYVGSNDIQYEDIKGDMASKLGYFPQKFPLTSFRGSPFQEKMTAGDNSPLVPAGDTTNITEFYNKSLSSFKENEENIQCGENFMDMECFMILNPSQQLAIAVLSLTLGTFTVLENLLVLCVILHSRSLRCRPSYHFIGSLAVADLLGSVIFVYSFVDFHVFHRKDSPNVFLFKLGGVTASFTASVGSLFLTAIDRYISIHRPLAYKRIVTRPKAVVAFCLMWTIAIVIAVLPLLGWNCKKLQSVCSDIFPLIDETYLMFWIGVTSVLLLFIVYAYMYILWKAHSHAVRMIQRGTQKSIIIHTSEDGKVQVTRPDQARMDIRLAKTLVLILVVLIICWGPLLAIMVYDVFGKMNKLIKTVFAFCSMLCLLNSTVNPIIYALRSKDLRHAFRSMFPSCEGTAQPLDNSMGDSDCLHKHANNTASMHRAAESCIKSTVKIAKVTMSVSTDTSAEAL

Kb [1, 10]	Bioavail. Rat [2]	Bioavail. Dog [3]	Kb [4]	SMILES	further results
390 nM	7%	36%	0.91 nM	Cc1cccc([C@H]2C[C@@H](NC(C)(C)c3ccc(C(F)(F)F)nc3)C(=O)N2c2ccc(OC(F)(F)F)cc2)c1 [Example 1, (3R,5R)-3-[1-Methyl-1-(6-trifluoromethyl-pyridin-3-yl)-ethylamino]-5-(m-tolyl)-1-(4-trifluoromethoxy-phenyl)-pyrrolidin-2-one tosylate]	–
> 7230 nM	–	–	107 nM	CC(C)(N[C@H]1C[C@@H](c2ccccc2)N(c2ccc(OC(F)(F)F)cc2)C1=O)c1ccc(C(F)(F)F)nc1 [Example 4, (3S,5S)-3-[1-Methyl-1-(6-trifluoromethyl-pyridin-3-yl)-ethylamino]-5-phenyl-1-(4-trifluoromethoxy-phenyl)-pyrrolidin-2-one tosylate]	–
> 14200 nM	36%	47%	0.91 nM	CC(C)(N[C@@H]1C[C@H](c2cccc(OC(F)(F)C(F)F)c2)N(c2ccc(Cl)cc2)C1=O)c1ccc(C(F)(F)F)nc1 [Example 41, (3R,5R)-3-[1-Methyl-1-(6-trifluoromethyl-pyridin-3-yl)-ethylamino]-5-[3-(1,1,2,2-tetrafluoro-ethoxy)-phenyl]-1-(4-chloro-phenyl)-pyrrolidin-2-one]	–

The remaining lines, values behind:

SMILES	Kb [1, 10]	Bioavail. Rat [2]	Bioavail. Dog [3]	Kb [4]	further results
CC(F)(F)c1cccc([C@H]2C[C@@H](NC(C)(C)c3ccc(C(F)(F)F)nc3)C(=O)N2c2ccc(OC(F)(F)F)cc2)c1 [Example 32B, (3R,5R)-3-[1-Methyl-1-(6-trifluoromethyl-pyridin-3-yl)-ethyl-amino]-5-[3-(1,1-difluoro-ethyl)-phenyl]-1-(4-trifluoromethoxy-phenyl)-pyrrolidin-2-one]	> 4000 nM	–	–	2.38 nM	–
CC(C)(N[C@@H]1C[C@H](c2cccc(OC(F)(F)C(F)F)c2)N(c2ccc(C(F)(F)F)cc2)C1=O)c1ccc(C(F)(F)F)nc1 [Example 40, (3R,5R)-3-[1-Methyl-1-(6-trifluoromethyl-pyridin-3-yl)-ethylamino]-5-[3-(1,1,2,2-tetrafluoro-ethoxy)-phenyl]-1-(4-trifluoromethyl-phenyl)-pyrrolidin-2-one]	> 6900 nM	77%	38%	0.71 nM	–
CC(C)(N[C@H]1C[C@H](c2ccccc2)N(c2ccc(OC(F)(F)F)cc2)C1=O)c1ccc(C(F)(F)F)nc1 [Example 44, (3S,5R)-3-[1-Methyl-1-(6-trifluoromethyl-pyridin-3-yl)-ethylamino]-5-phenyl-1-(4-trifluoromethoxy-phenyl)-pyrrolidin-2-one]	4030 nM	–	–	72.7 nM	–
CC(C)(N[C@@H]1C[C@H](c2ccccc2)N(c2ccc(OC(F)(F)F)cc2)C1=O)c1ccc(C(F)(F)F)nc1.Cc1ccc(S(=O)(=O)O)cc1 [Example 49, (3R,5R)-3-[1-Methyl-1-(6-trifluoromethyl-pyridin-3-yl)-ethylamino]-5-phenyl-1-(4-trifluoromethoxy-phenyl)-pyrrolidin-2-one tosylate]	–	36%	40%	2.6 nM	Kb ([5]; Rat CB1 (CHO cells), GTP binding, mean ± SEM, read-out: Inverse Agonist Potency [Kb (nM)]): 0.264 ± 0.02 nM; CB1 antagonism/inverse agonism, in words ([5]; rat CB1 receptors): potent; Kb ([6]; Human CB1 (CHO cells), GTP binding, mean ± SEM, read-out: Inverse Agonist Potency [Kb (nM)]): 0.226 ± 0.01 nM; CB1 antagonism/inverse agonism, in words ([6]; human CB1 receptors): potent; Kb ([1]; Human CB2 (Sf9 cells), GTP binding, mean ± SEM, read-out: Inverse Agonist Potency [Kb (nM)]): 587 ± 191 nM; CB2 antagonism, in words ([1]; human CB2 receptors): low antagonism; Agonist Efficacy % ([7]; normalized to full agonist methanandamide): 0%; EC50 ([7]; read-out: Agonist Potency EC50): > 10000 nM; Forced Swim Test (MED, mg/kg, po) [8]: 3 mg/kg; Agonist Efficacy % ([9]; Human CB1, Sf9 membranes, normalized to full agonist methanandamide): −38.3 ± 1.0%; EC50 ([9]; Human CB1, Sf9 membranes, read-out: Agonist Potency EC50): 0.81 ± 0.19 nM; agonist efficacy at the human CB1 receptor (inverse agonism), in words ([9]; human CB1, basal constitutive activity): less than zero
